Source: patent US20230002446A1, “ANTI-INFLAMMATORY AGENTS” (The University of Sydney, priority 2019, published 2023)
Where a SMILES comes first, the peptide text is derived from it. [ ]: non-standard residue; d: D form. AEEA = NCCOCCOCC(=O)O

Assays:
[1] = system: mice; experiment: tolerability of injection in mice; type: in vivo; details: even 10 nmol daily for 6 days sub-cutaneous (data not shown)
[2] = system: murine bone marrow derived macrophages; experiment: LPS-stimulated bone marrow derived macrophages, cytokine ELISA; type: cell-based; details: after LPS-stimulation
Procedure: FIG. 5—Peptide administration reduces the activation of pro-inflammatory DCs and macrophages. (A) C57BL/6 murine splenocytes were stimulated with LPS±peptide RP23 (SEQ ID NO:12) and expression of activation markers on DCs was assessed by flow cytometry. (B) Bone marrow derived murine macrophages were incubated with peptide RP23 (30 mins) and stimulated with LPS (overnight). Positive controls were stimulated with LPS only. Negative controls were unstimulated. Inflammatory cytokine production was assessed by ELISA. (C) CD14+ cells were isolated from human blood and differentiated into macrophages by culturing with human serum. Cells were incubated with peptide RP23 (30 mins), then stimulated overnight with LPS (left panel) or imiquimod (right panel). Inflammatory cytokine (IL-6 or IL-12/23) production was assessed by ELISA. Representative of 6 donors. Data are presented as mean±S.E.M. Statistical significance was determined by ANOVA with Dunnett's multiple comparison test, *p<0.05, **p<0.01, ***p<0.001.
Using an in vitro culture system, it was determined whether RP23 could suppress the activity of specific pro-inflammatory immune cells. […] The culture of murine bone marrow derived macrophages with RP23 led to reduced IL-6, MCP-1 and TNF release after LPS-stimulation (FIG. 5b). Similarly, primary human blood derived macrophages had reduced IL-6 and IL-12/23 release after stimulation with either LPS or imiquimod (FIG. 5c).

[3] = system: CD11c+ dendritic cells; experiment: MHCII on CD11c+ dendritic cells after intra-nasal instillation; type: in vivo, mice
Procedure: FIG. 15. Mucosal delivery of RP23 to the lungs decreases activation of antigen presenting cells in the lungs and bronchoalveolar space. (A) C57BL/6 mice (n=5) received either PBS or RP23 by intra-nasal instillation or (B) C57BL/6 mice (n=4) received either PBS, scramble RP23 peptide, or RP23 by intra-nasal instillation, then 24 hours later, Pam2Cys-SK4-PEG(OH) intra-nasally to induce an inflammatory state. 24 hours later, cells from the bronchoalveolar lavage and perfused lungs were collected. The median fluorescence intensity of MHCII on CD11c^+ dendritic cells was determined by flow cytometry. Data are the means+/−SEM. Statistical significance was determined by (A) t-test, ***p<0.001 and (B) ANOVA with Dunnett's multiple comparison test to PBS control, *p<0.05.
Naïve C57BL/6 mice (n=5) received either PBS or RP23 by intra-nasal instillation, then 24 hours later, cells from the bronchoalveolar lavage and perfused lungs were collected. The median fluorescence intensity of MHCII on CD11c+ dendritic cells was determined by flow cytometry. […] To determine if this effect would be maintained once potent lung inflammation was induced, C57BL/6 mice (n=4) received either PBS, scramble RP23 peptide, or RP23 by intra-nasal instillation, then 24 hours later, Pam2Cys-SK4-PEG(OH) was given intra-nasally to induce an inflammatory state.

[4] = system: UV13-1 tumour cells; experiment: murine skin tumour model, peptide trialled as vaccine antigen; type: in vivo, mice; details: 5 nmol sub-cutaneous 21 and 7 days prior to transfer of UV13-1 tumour cells
Procedure: FIG. 1—Peptide administration leads to accelerated skin tumour growth. Mice received sub-cutaneous injections of mixtures containing 5 nmol peptide RP23 (SEQ ID NO:12) (solid line), PBS or liposome controls (dotted line) 21 and 7 days prior to transfer of UV13-1 tumour cells. […] Difference in survival was analysed statistically using a log-rank test.
The inventors initially trialled RP23 (SEQ ID NO: 12) as a vaccine antigen in a murine skin tumour model. […] They then assessed whether RP23 could reduce inflammation in a murine model of contact dermatitis, using a contact hypersensitivity assay (FIG. 2a). […] Using RP23, the inventors carried out a dose-response assay to titrate the immune suppression. Using three doses in the low nanomole range (2, 5 or 10 nmol, about 0.3 0.8, 1.6 mg/kg), a dose-dependent reduction in ear swelling of up to 100% compared to controls was observed (FIG. 3c). […] Further, in a murine model of imiquimod-induced psoriasis (FIG. 4a), a single injection of RP23 reduced local erythema, skin thickness and scaling (FIG. 4b,c).

[5] = Pam2Cys-SK4-PEG(OH) intra-nasally 24 hours after peptide

CSCC[C@H](NC(=O)COCCOCCNC(=O)[C@H](CCCCN)NC(=O)[C@H](CCCCN)NC(=O)[C@H](CCCCN)NC(=O)[C@@H](N)CCCCN)C(=O)N[C@H](C(=O)N1CCC[C@H]1C(=O)NCC(=O)N[C@H](C(=O)N[C@@H](CCC(N)=O)C(=O)N[C@@H](CO)C(=O)N1CCC[C@H]1C(=O)N[C@@H](Cc1ccccc1)C(=O)N[C@@H](Cc1ccccc1)C(=O)N[C@@H](CC(C)C)C(=O)N[C@@H](CC(C)C)C(=O)N[C@@H](CC(C)C)C(=O)N[C@@H](CC(C)C)C(=O)N[C@@H](CC(C)C)C(=O)N[C@H](C(=O)N[C@H](C(=O)N[C@@H](CC(C)C)C(=O)N[C@H](C(=O)N[C@H](C(=O)N[C@H](C(=O)O)C(C)C)C(C)C)[C@@H](C)O)C(C)C)[C@@H](C)O)[C@@H](C)O)[C@@H](C)O [RP23] (H-KKKK[AEEA]MTPGTQSPFFLLLLLTVLTVV-OH)
adverse reactions [1]: No adverse reactions of any kind
IL-6 release [2]: reduced
MCP-1 release [2]: reduced
TNF release [2]: reduced
MHCII expression on DC in the bronchoalveolar space [3, 5]: also on DC in the bronchoalveolar space
MHCII expression on lung DC [3, 5]: reduced MHCII expression on lung DC
MHCII expression on DC in the lung tissue ([3]; naive mice, 24 hours after intra-nasal instillation): substantially reduced
skin tumour growth [4]: modest increase in tumour growth
survival of tumour-bearing mice [4]: succumbed to their tumour earlier
